In ChEMBL document CHEMBL3046023, “Synthesis, in vitro cytotoxicity, and anti-microbial studies of 1,4-bis(4-substituted-5-mercapto-1,2,4-triazol-3-yl)butanes” (Med Chem Res, 2012):
Values after ≈ are worked out from the molar mass of the structure shown.

Legend:
[1] = tested on: Pseudomonas aeruginosa; assay: Antibacterial activity against Pseudomonas aeruginosa ATCC 27853 after 24 hr by serial dilution method; format: functional; settings: ATCC 27853, 24 h
[2] = tested on: Escherichia coli; assay: Antibacterial activity against Escherichia coli ATCC 25922 after 24 hr by serial dilution method; format: functional; settings: ATCC 25922, 24 h
[3] = tested on: Staphylococcus aureus; assay: Antibacterial activity against Staphylococcus aureus ATCC 25923 after 24 hr by serial dilution method; format: functional; settings: ATCC 25923, 24 h
[4] = tested on: Bacillus subtilis; assay: Antibacterial activity against Bacillus subtilis ATCC 6633 after 24 hr by serial dilution method; format: functional; settings: ATCC 6633, 24 h
[5] = tested on: MDA-MB-231; assay: Cytotoxicity against Homo sapiens (human) MDA-MB-231 cells after 72 hr by MTT assay; format: functional, cell-based; settings: MDA-MB-231, 72 h
[6] = tested on: HT-29; assay: Cytotoxicity against Homo sapiens (human) HT-29 cells after 72 hr by MTT assay; format: functional, cell-based; settings: HT-29, 72 h
[7] = tested on: A549; assay: Cytotoxicity against Homo sapiens (human) A549 cells after 72 hr by MTT assay; format: functional, cell-based; settings: A549, 72 h

MIC [1]	MIC [2]	MIC [3]	MIC [4]	Compound	IC50 [5]	IC50 [6]	IC50 [7]
100 µg/mL (≈ 172 µM)	12.5 µg/mL (≈ 21.5 µM)	12.5 µg/mL (≈ 21.5 µM)	12.5 µg/mL (≈ 21.5 µM)	Cc1ccc(-n2c(CCCCc3nnc(SCC(=O)NN)n3-c3ccc(C)cc3)nnc2SCC(=O)NN)cc1	32.2 µM	31.2 µM	36.9 µM
–	100 µg/mL (≈ 195 µM)	–	100 µg/mL (≈ 195 µM)	CCCCn1c(CCCCc2nnc(SCC(=O)NN)n2CCCC)nnc1SCC(=O)NN	59.8 µM	63.4 µM	69.3 µM
–	100 µg/mL (≈ 169 µM)	–	100 µg/mL (≈ 169 µM)	CCOC(=O)CSc1nnc(CCCCc2nnc(SCC(=O)OCC)n2C2CCCCC2)n1C1CCCCC1	70.4 µM	65.3 µM	51.9 µM
50 µg/mL (≈ 82.4 µM)	12.5 µg/mL (≈ 20.6 µM)	50 µg/mL (≈ 82.4 µM)	25 µg/mL (≈ 41.2 µM)	CCN(CC)C(=O)Sc1nnc(CCCCc2nnc(SC(=O)N(CC)CC)n2-c2ccccc2)n1-c1ccccc1	14.9 µM	14.3 µM	19.3 µM
100 µg/mL (≈ 164 µM)	50 µg/mL (≈ 82.1 µM)	100 µg/mL (≈ 164 µM)	50 µg/mL (≈ 82.1 µM)	CCOC(=O)CSc1nnc(CCCCc2nnc(SCC(=O)OCC)n2-c2cccc(C)c2)n1-c1cccc(C)c1	25.2 µM	25.8 µM	23.3 µM
–	–	–	–	CCCCn1c(CCCCc2nnc(SC(=O)N(CC)CC)n2CCCC)nnc1SC(=O)N(CC)CC	70.3 µM	64.5 µM	63.1 µM
100 µg/mL (≈ 181 µM)	25 µg/mL (≈ 45.2 µM)	25 µg/mL (≈ 45.2 µM)	25 µg/mL (≈ 45.2 µM)	NNC(=O)CSc1nnc(CCCCc2nnc(SCC(=O)NN)n2-c2ccccc2)n1-c1ccccc1	69.9 µM	65.3 µM	63.2 µM
–	100 µg/mL (≈ 144 µM)	–	50 µg/mL (≈ 71.9 µM)	CCOc1ccc(-n2c(CCCCc3nnc(SC(=O)N(CC)CC)n3-c3ccc(OCC)cc3)nnc2SC(=O)N(CC)CC)cc1	71.6 µM	75 µM	51.9 µM
–	100 µg/mL (≈ 162 µM)	–	100 µg/mL (≈ 162 µM)	CCN(CC)C(=O)Sc1nnc(CCCCc2nnc(SC(=O)N(CC)CC)n2C2CCCCC2)n1C1CCCCC1	66.2 µM	69.9 µM	51.8 µM
100 µg/mL (≈ 164 µM)	100 µg/mL (≈ 164 µM)	100 µg/mL (≈ 164 µM)	100 µg/mL (≈ 164 µM)	CCOC(=O)CSc1nnc(CCCCc2nnc(SCC(=O)OCC)n2-c2ccc(C)cc2)n1-c1ccc(C)cc1	24.3 µM	13.5 µM	9.13 µM
–	–	–	–	COc1cccc2c1C(=O)c1c(O)c3c(c(O)c1C2=O)C[C@@](O)(C(=O)CO)C[C@@H]3O[C@H]1C[C@H](N)[C@H](O)[C@H](C)O1 [DOXORUBICIN]	0.1 µM	0.07 µM	0.09 µM
25 µg/mL (≈ 39.4 µM)	12.5 µg/mL (≈ 19.7 µM)	25 µg/mL (≈ 39.4 µM)	12.5 µg/mL (≈ 19.7 µM)	CCN(CC)C(=O)Sc1nnc(CCCCc2nnc(SC(=O)N(CC)CC)n2-c2ccc(C)cc2)n1-c1ccc(C)cc1	8.17 µM	3.45 µM	3.23 µM
100 µg/mL (≈ 172 µM)	50 µg/mL (≈ 86.1 µM)	100 µg/mL (≈ 172 µM)	100 µg/mL (≈ 172 µM)	CCOC(=O)CSc1nnc(CCCCc2nnc(SCC(=O)OCC)n2-c2ccccc2)n1-c1ccccc1	32.2 µM	51.2 µM	34.5 µM
–	50 µg/mL (≈ 88.5 µM)	–	100 µg/mL (≈ 177 µM)	NNC(=O)CSc1nnc(CCCCc2nnc(SCC(=O)NN)n2C2CCCCC2)n1C1CCCCC1	70.2 µM	66.2 µM	65.3 µM
–	100 µg/mL (≈ 185 µM)	–	100 µg/mL (≈ 185 µM)	CCCCn1c(CCCCc2nnc(SCC(=O)OCC)n2CCCC)nnc1SCC(=O)OCC	71.4 µM	69.8 µM	61.5 µM
25 µg/mL (≈ 39.4 µM)	12.5 µg/mL (≈ 19.7 µM)	50 µg/mL (≈ 78.8 µM)	25 µg/mL (≈ 39.4 µM)	CCN(CC)C(=O)Sc1nnc(CCCCc2nnc(SC(=O)N(CC)CC)n2-c2cccc(C)c2)n1-c1cccc(C)c1	17.2 µM	10.2 µM	15.2 µM
100 µg/mL (≈ 150 µM)	25 µg/mL (≈ 37.4 µM)	50 µg/mL (≈ 74.8 µM)	25 µg/mL (≈ 37.4 µM)	CCOC(=O)CSc1nnc(CCCCc2nnc(SCC(=O)OCC)n2-c2ccc(OCC)cc2)n1-c1ccc(OCC)cc1	15.1 µM	13.2 µM	9.3 µM
12.5 µg/mL (≈ 19.5 µM)	12.5 µg/mL (≈ 19.5 µM)	12.5 µg/mL (≈ 19.5 µM)	6.25 µg/mL (≈ 9.75 µM)	CCOc1ccc(-n2c(CCCCc3nnc(SCC(=O)NN)n3-c3ccc(OCC)cc3)nnc2SCC(=O)NN)cc1	13.2 µM	5.16 µM	9.13 µM
–	25 µg/mL (≈ 43 µM)	25 µg/mL (≈ 43 µM)	25 µg/mL (≈ 43 µM)	Cc1cccc(-n2c(CCCCc3nnc(SCC(=O)NN)n3-c3cccc(C)c3)nnc2SCC(=O)NN)c1	40.2 µM	38.2 µM	39.1 µM

Compound	MIC [1]	MIC [2]	MIC [3]	MIC [4]	IC50 [5]	IC50 [6]	IC50 [7]
CC1(C)S[C@@H]2[C@H](NC(=O)[C@H](N)c3ccccc3)C(=O)N2[C@H]1C(=O)O [AMPICILLIN]	12.5 µg/mL (≈ 35.8 µM)	6.25 µg/mL (≈ 17.9 µM)	6.25 µg/mL (≈ 17.9 µM)	12.5 µg/mL (≈ 35.8 µM)	–	–	–
